In one experiment the target is T1, hDMT1 (SLC11A2) (Homo sapiens, UniProt P49281).
T1 construct: DsRED; expressed in transfected cells
T1 sequence (P49281 1-568): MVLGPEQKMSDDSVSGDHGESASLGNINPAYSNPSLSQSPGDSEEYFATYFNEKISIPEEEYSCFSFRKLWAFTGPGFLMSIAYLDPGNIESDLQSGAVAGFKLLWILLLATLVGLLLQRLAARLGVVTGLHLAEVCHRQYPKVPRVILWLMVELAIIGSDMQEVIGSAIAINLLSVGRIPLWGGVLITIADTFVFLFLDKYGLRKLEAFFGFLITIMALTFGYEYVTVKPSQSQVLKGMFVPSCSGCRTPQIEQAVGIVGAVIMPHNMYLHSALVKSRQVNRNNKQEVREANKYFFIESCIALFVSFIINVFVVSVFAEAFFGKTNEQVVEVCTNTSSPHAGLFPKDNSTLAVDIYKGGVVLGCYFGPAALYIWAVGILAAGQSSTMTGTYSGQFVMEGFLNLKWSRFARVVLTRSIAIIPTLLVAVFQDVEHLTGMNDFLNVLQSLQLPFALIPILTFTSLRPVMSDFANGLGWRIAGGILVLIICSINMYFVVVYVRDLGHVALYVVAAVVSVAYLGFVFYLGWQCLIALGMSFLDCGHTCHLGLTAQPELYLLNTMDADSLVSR
Briefly: radioactive iron uptake assay in HEK293 cells stably overexpressing hDMT1. The experiment is classed as cell-based. Conditions: for mode of inhibition: 55Fe2+ uptake kinetics; for Ki: [Fe^2+] → 0, Dixon plot analysis, read-out: inhibition constant Ki; for Ligand efficiency: from IC50 of radioactive iron uptake in HEK293-hDMT1; for IC50: radioactive iron 1 μM, 15 min incubation, extracellular pH 5.5, HEK293 stably overexpressing hDMT1; for inhibition constant Kii: saturating iron, 1/Vmax vs [I].

For the next experiment, the target named is T2, hDMT1 (Homo sapiens, UniProt P49281).
T2 sequence (P49281 1-568): T1 sequence (P49281 1-568)
Briefly: 55Fe2+ uptake by HEK293T cells transiently transfected with hDMT1. Conditions: for inhibition of 55Fe2+ uptake by hDMT1: compound 10 μM, 55Fe2+ 1 μM, pH 5.5, HEK293T; for IC50: HEK293T transiently transfected with hDMT1, 55Fe2+ 1 μM, pH 5.5. The experiment is classed as cell-based. Details: DsRED; expressed in transfected cells; host or cells: HEK293T (ATCC CRL-3216), transient transfection with Lipofectamine 2000. The text has this:
Complex formation with Fe^2+ should result in non-selective inhibition of different metal transporters. To test this hypothesis, we investigated whether human SLC39A8 (hZIP8), a transporter of Zn^2+ and Fe^2+ unrelated to SLC11 family, might also be inhibited by our hDMT1 inhibitors. Both SLCs can be tested by inhibition of radioactive iron uptake into HEK293 cells expressing the transporter, at pH 5.5 for hDMT1 and at pH 7.4 for hZIP8.
Fig. 5 Cross reactivity of hDMT1 inhibitors over the functional activity of the divalent metal transporter hZIP8. (a) ^55Fe^2+ uptake (1 μM) by HEK293T cells (source: American Type Culture Collection, catalog no. CRL-3216) transiently transfected with the empty vector (Ev), hDMT1 or hZIP8. Uptake assay was performed at the optimal pH for the functional activity of each transporter (pH 5.5 and pH 7.4 respectively). The indicated compounds (10 μM) were pre-incubated for 5 min, and then, for 15 min with both compound and ^55Fe^2+. Measured ^55Fe^2+ was corrected by subtracting the background iron uptake measured in non-transfected cells. The data was normalized to the Fe^2+ uptake measured in the presence of DMSO (0.1%) and represented as mean ± SD (N = 5–16; obtained from 2 independent experiments). IC50 determination for pyrazolyl-pyrimidone 13 (b) and bipyridine (c) in HEK293T cells transiently transfected with hDMT1 (left panels) or hZIP8 (right panels). ^55Fe^2+ uptake (1 μM) was measured in the presence of the indicated compound concentration ranges, and the measurements were corrected by subtracting the background iron uptake measured in non-transfected cells. IC50 values were calculated by fitting the data to a sigmoidal 4-parameter equation. Representative experiments are depicted, while IC50 values were calculated as mean ± SD of 3 different experiments.
Chemicals and reagents were purchased from Merck, except where indicated otherwise.
Cell Culture. Cellular experiments where conducted either with a HEK293 cell line (ATCC) stably expressing DsRED-hDMT1 plasmid or HEK293T cells (ATCC) transiently transfected with DsRED-hZIP8 or DsRED-hDMT1 plasmids. The cell line stably expressing hDMT1 was generated as described in previous works1,2. In both cases, cells were cultured in Dulbecco´s modified Eagle´s medium (DMEM) supplemented with 10 % foetal bovine serum (FBS), 10 mM HEPES and 1 mM Na-pyruvate under standard cell culture conditions (37 °C, 95 % humidity and air containing 5 % CO2). When culturing the hDMT1 overexpressing cell line, to maintain stable the expression of the exogenous plasmid, culture media was also supplemented with […] geneticin (Life Technologies). […]
Radiolabelled iron uptake assay. Cells were seeded in clear bottom, white-well, poly-D-lysine coated 96-well plates (Corning). HEK293 cells stably over-expressing hDMT1 were seeded 24 hours before the experiment at a density of 50,000 cells/well. HEK293T cells were seeded at 30,000 cells/well 48 hours before the experiment, and 24 hours after were transfected […]
using Lipofectamine 2000 (Life technologies) as described in the manufacturer’s protocol.
Before the uptake assay, culture media was aspirated and the cells were washed with the uptake solution (140 mM NaCl, 2.5 mM KCl, 1 mM CaCl2, 1 mM MgCl2, 1.2 mM K2HPO4, 10 mM glucose, 5 mM HEPES, 5 mM MES, pH 7.4). To determine the iron uptake, the cells were incubated for 15 min at room temperature (RT) with uptake solution (pH 5.5) supplemented with 100 µM Ascorbic acid, and the indicated amount of non-radioactive Ferrous iron (Fe2+) and radiolabelled 55Fe2+ (American Radiolabelled) (0.5 µCi/mL). To stop the uptake process, the solution containing the radiotracer was removed and cells were washed with ice-cold uptake solution (pH 7.5). To determine the iron accumulated within the cells during the incubation time, the scintillation cocktail Mycrosinth 20 (PerkinElmer) was added to each well, and the cells were incubated during 1 hour at RT under constant agitation. […]

Results on five compounds are retold here after PMC7649969, “Pyrazolyl-pyrimidones inhibit the function of human solute carrier protein SLC11A2 (hDMT1) by metal chelation” (RSC Medicinal Chemistry, 2020).

For the compound `N=C(N)SCc1cccc2c1oc1c(CSC(=N)N)cccc12` [Compound 1, reference compound], at hDMT1 (SLC11A2), the mode of inhibition entry is “competitive inhibition”; the Ki (as a rule, the dissociation constant of the complex between target and ligand, obtained from inhibition or displacement) was determined as 1.4 µM; the Ligand efficiency is on record as 0.35; the IC50 (usually the midpoint of a concentration-inhibition curve) worked out at 1.76 ± 0.06 µM. In addition, the “inhibition constant Kii” value at hDMT1 (SLC11A2) was 15.6 µM. On hDMT1 (SLC11A2) (radioactive iron uptake vs reported calcein assay), the “potency weaker than originally reported value based on a calcein assay” value is on record as 5 fold. Moreover, at hDMT1, the “inhibition of 55Fe2+ uptake by hDMT1” value is recorded as “only inhibited hDMT1”.
Regarding `c1ccc(-c2ccccn2)nc1` [bipyridine], at hDMT1, the IC50 is about 6.5 µM and the “inhibition of 55Fe2+ uptake by hDMT1” value is recorded as “inhibited both transporters”.
Consider `Cc1cc(O)nc(-n2nc(C)cc2C)n1` [Compound 5], for which the IC50 on hDMT1 (SLC11A2) stood at 13.1 ± 0.7 µM. At hDMT1, the “inhibition of 55Fe2+ uptake by hDMT1” value is recorded as “inhibited both transporters”.
Regarding `Cc1cc(=O)[nH]c(-n2nc3c(c2C)CCCC3)n1` [Compound 13], on hDMT1 (SLC11A2), the mode of inhibition result is recorded as “non-competitive inhibitor”, the Ki was determined as 2 µM, the Ligand efficiency turned out to be 0.45 and the IC50 is 1.1 ± 0.01 µM. Moreover, on hDMT1 (SLC11A2), the “inhibition constant Kii” value came to 1.7 µM. For the same compound, the “improvement of IC50 over initial inhibitor 5” value on hDMT1 (SLC11A2) (radioactive iron uptake) turned out to be 10 fold. In addition, on hDMT1, the IC50 is about 1.1 µM and the “inhibition of 55Fe2+ uptake by hDMT1” value is “inhibited both transporters”.
As for `Cc1nn(-c2ccccn2)c(O)c1C(=O)Nc1cccc(C(F)(F)F)c1` [Compound 3, reference compound], the “inhibition of 55Fe2+ uptake by hDMT1” value on hDMT1 was “inhibited both transporters”.
